The numbers were not newly measured in patent publication US5824668A, “Formulation for administration of steroid compounds” (priority 1996, dated 1998), which cites them from elsewhere.

SMILES strings stand for the structures.

The conditions of data set [1]: humans; cited from earlier work.
Data set [2] has as its system genetically obese and diabetic mice. As to conditions: genetically obese and diabetic mice; cited from earlier work.
Another data set has as its system female patients. As to conditions: cited from earlier work.
Data set [3] has as its system severely diabetic mammals. As to conditions: oral; cited from earlier work.
For another data set, the system named is genetically obese mice. As to conditions: genetically obese mice, variety of routes; cited from earlier work.
The next data set deals with rats and mice. As to conditions: cited from earlier work.

On to `C[C@]12CC[C@H](O)CC1=CC[C@@H]1[C@@H]2CC[C@]2(C)C(=O)CC[C@@H]12` [DHEA, 3-β-hydroxy-androst-5-en-17-one], for which, in data set [1], the metabolism result was “metabolized to testosterone (17-β-hydroxy-androst-4-en-3-one) and estradiol”. The development of diabetes entry in data set [2] was “markedly reduced the development of diabetes”. Further, in the data set with female patients, the acne result is listed as “severe acne”. For the same molecule, in data set [3], the glucose tolerance entry was “improved glucose tolerance” and the hyperglycemia result is on record as “restored hyperglycemia to normal levels”. Further, the “rate of weight gain” value in the data set with genetically obese mice is recorded as “decreased the rate of weight gain”. Besides, the “control of diabetes and obesity” value in the data set on rats and mice was “effective in controlling diabetes and obesity”.
